Results taken from patent US5635161A, “Aerosol drug formulations containing vegetable oils” (priority 1995, dated 1997).
Entries after “also recorded” stand apart in the source; their conditions may differ.

What was measured:
[1] = Visual dispersion quality (physical stability) of MDI formulations in HFA-134a after 24 hours; assay type: physicochemical; set-up: key: Poor: Phase separation; top phase clear, bottom phase containing solids; Fair: Partial phase separation; cloudiness in the top phase; Good: Grainy appearance; no phase separation; Clear solution
Method: MDI formulations for performance testing were prepared in the following manner: For each test formulation, about 5 mL (or 7.4 grams) of glass beads were placed into a suitable glass aerosol container (vial), along with 100 mg to 250 mg drug and a vegetable oil in the amounts needed to produce the desired final concentrations. All vegetable oils used in the following examples were purchased from Sigma® Chemical Company (St. Louis, Mo., 63178). The vials were crimped shut with valves having delivery values (volumes per spray) of 50 μL, and then charged with 10 mL of HFA-134a propellant. The filled vials were then shaken for 24 hours at about 50 cycles/minute to mill and disperse the drug. […] The formulations were then used in the in vitro or in vivo studys described below.
A determination of the effect of vegetable oils on the physical stability of several MDI formulations prepared with HFA-134a was conducted as follows: A vegetable oil was combined either with (1) leuprolide acetate (Table 2a) or (2) 5-LO inhibitor #1 (Table 2b) in the amounts indicated and placed in appropriate transparent aerosol containers (vials). […] The dispersion quality in each preparation was evaluated visually after 24 hours using the following criteria: […]

[2] = Bioavailability / plasma pharmacokinetics after inhalation (MDI) versus i.v. in tracheostomized dogs; assay type: in vivo; settings: dog
Method: All quantitative analyses for 5-LO inhibitor #1 formulations were performed by high pressure liquid chromatography (HPLC). The mobile phase composition was 30% v/v tetrahydrofuran in water with 0.128% w/v tetramethylammonium perchlorate and 0.075% v/v trifluoroacetic acid. A Regis Little Champ™ C-18, 4.6×50 mm column was used. The mobile phase flow rate was maintained at 1.0 milliliters/minute (mL/min). Detection wavelength was set at 282 nanometers (nm) and typical injection volumes were between 25 to 50 microliters (μL). Under these conditions, the standard curve for the parent drug was linear between the range of 3 to 75 micrograms/milliliter (μg/mL) (r^2 ≥0.990), with a run time of about 8 minutes.
Using a test preparation containing 25 mg/mL 5-LO inhibitor #1 and 2.5 mg/mL olive oil in HFC-134a propellant, pulmonary absorption and in vivo distribution (i.e. bioavailibility factors) were assessed in four tracheostomized dogs (Marshall Farms, N.Y.) weighing about 10 kilograms (kg) each. Four sprays, delivering 1.25 mg of active 5-LO inhibitor #1/spray, were delivered to the trachea of each dog, resulting in a total drug dose of about 0.5 mg/kg. Blood samples were collected at 0.25, 0.5, 1, 2, 3.5, 5, 7, 9, 12 and 24 hours after dosing and the plasma assayed for drug concentration using the HPLC method described in Example 1A above.

[3] = as above; settings: dog, in vivo
[4] = in vivo, inhaled or intranasal, 0.5 mg/kg
[5] = in vivo, inhaled or intranasal, 0.5 mg/kg, Plasma concentration (5-LO Inhibitor Levels)
[6] = inhaled or intranasal, 0.5 mg/kg, Plasma concentration (5-LO Inhibitor Levels)
[7] = iv, 0.5 mg/kg, Plasma concentration (5-LO Inhibitor Levels)

Which “Dispersion Quality (measured after 24 Hours)” value ([1]; Table 2b, 5-LO inhibitor #1 formulations in HFA-134a) does the source give for `CC(C#Cc1ccc(Cc2ccc(F)cc2)s1)N(O)C(N)=O` (stereo not drawn) [5-LO inhibitor #1, N-[3-[5-(4-fluorophenylmethyl)-2-thienyl]-1-methyl-2-propynyl]-N-hydroxyurea] here?
Its value is “Poor”.

What about the Cmax [2, 4] of the same compound?
Its Cmax is 150 ± 30 ng/mL.

And the Tmax [2, 4]?
Its Tmax is 10.4 ± 9.23 h.

What about the “Plasma concentration (5-LO Inhibitor Levels)” value ([2]; in vivo, inhaled or intranasal, 0.5 mg/kg, 1 h) of the same compound?
The value was 30 ± 20 ng/mL.

And the concentration at 0.5 h [2, 5]?
Its concentration at 0.5 h is 10 ± 10 ng/mL.

What about the concentration at 1 h [2, 5] of the same compound?
Its concentration at 1 h is 30 ng/mL.

And the concentration at 7 h [2, 5]?
Its concentration at 7 h is 120 ± 70 ng/mL.

And the concentration at 9 h [2, 5]?
The concentration at 9 h was 90 ± 50 ng/mL.

And the concentration at 24 h [2, 5]?
Its concentration at 24 h is 50 ± 60 ng/mL.

What about the concentration at 12 h ([2]; in vivo, inhaled or intranasal, 0.5 mg/kg, drug levels maintained) of the same compound?
The concentration at 12 h was at least 70 ng/mL.

And the “onset and absorption from the lungs (in words)” value ([2]; inhalation formulation)?
The value was “fast onset of drug absorption; also recorded: rapid onset and prolonged absorption of drug from the lungs”.

What about the “duration of drug absorption after dosing” value [3] of the same compound?
The value was 6 to 8 h.

What about the AUC(0-t) at 24 h ([3]; inhaled or intranasal, 0.5 mg/kg) of the same compound?
The AUC(0-t) at 24 h was 1600 ± 400 ng·h/mL.

What about the bioavailability ([3]; inhaled or intranasal, 0.5 mg/kg, Bioavailability (absolute lung bioavailability versus i.v.)) of the same compound?
The bioavailability was about 64%.

What about the concentration at 2 h [3, 6] of the same compound?
The concentration at 2 h was 40 ± 30 ng/mL.

What about the concentration at 3.5 h [3, 6] of the same compound?
The concentration at 3.5 h was 90 ± 60 ng/mL.

What about the concentration at 5 h [3, 6] of the same compound?
The concentration at 5 h was 80 ± 60 ng/mL.

And the concentration at 12 h [3, 6]?
The concentration at 12 h was 70 ± 40 ng/mL.

And the AUC(0-t) at 24 h ([3]; iv, 0.5 mg/kg)?
The AUC(0-t) at 24 h was 5060 ± 1040 ng·h/mL.

What about the “Plasma concentration (5-LO Inhibitor Levels)” value ([3]; iv, 0.5 mg/kg, 0 min) of the same compound?
Its value is 0 ng/mL.

What about the “Plasma concentration (5-LO Inhibitor Levels)” value ([3]; iv, 0.5 mg/kg, 0.25 h) of the same compound?
The value was 590 ± 50 ng/mL.

And the “Plasma concentration (5-LO Inhibitor Levels)” value ([3]; iv, 0.5 mg/kg, 12 h)?
Its value is 180 ± 60 ng/mL.

What about the concentration at 0.08 h [3, 7] of the same compound?
Its concentration at 0.08 h is 630 ± 60 ng/mL.

And the concentration at 0.25 h [3, 7]?
Its concentration at 0.25 h is about 600 ng/mL.

And the concentration at 0.5 h [3, 7]?
Its concentration at 0.5 h is 600 ± 40 ng/mL.

What about the concentration at 1 h [3, 7] of the same compound?
The concentration at 1 h was 520 ± 40 ng/mL.

And the concentration at 2 h [3, 7]?
Its concentration at 2 h is 480 ± 50 ng/mL.

And the concentration at 4 h [3, 7]?
The concentration at 4 h was 370 ± 60 ng/mL.

What about the concentration at 6 h [3, 7] of the same compound?
The concentration at 6 h was 300 ± 50 ng/mL.

What about the concentration at 8 h [3, 7] of the same compound?
Its concentration at 8 h is 230 ± 50 ng/mL.

And the concentration at 12 h [3, 7]?
Its concentration at 12 h is about 200 ng/mL.

What about the concentration at 24 h [3, 7] of the same compound?
Its concentration at 24 h is 70 ± 20 ng/mL.

Which “Dispersion Quality (measured after 24 Hours)” value ([1]; Table 2a, leuprolide acetate formulations (or excipients alone) in HFA-134a) does the source give for `CCNC(=O)[C@@H]1CCCN1C(=O)[C@H](CCCNC(=N)N)NC(=O)[C@H](CC(C)C)NC(=O)[C@@H](CC(C)C)NC(=O)[C@H](Cc1ccc(O)cc1)NC(=O)[C@H](CO)NC(=O)[C@H](Cc1c[nH]c2ccccc12)NC(=O)[C@H](Cc1c[nH]cn1)NC(=O)[C@@H]1CCC(=O)N1` [Leuprolide Acetate, leuprolide acetate, reference compound] here?
The value was “Poor”.
